Molecules are shown by their SMILES. A value given as a limit tells only on which side of the number the result lay.

The first assay deals with human NLRP3 (Homo sapiens (Human), UniProt Q96P20). Put plainly: Scintillation Proximity (SPA) NLRP3 Assay: displacement of 3H-MCC950. The class given is binding. Particulars: SPA IC50, displacement of 3H-MCC950. (In general: SPA uses beads or plates that emit light when radiolabelled molecules are held near them.)
Chain of human NLRP3 (Q96P20 whole entry): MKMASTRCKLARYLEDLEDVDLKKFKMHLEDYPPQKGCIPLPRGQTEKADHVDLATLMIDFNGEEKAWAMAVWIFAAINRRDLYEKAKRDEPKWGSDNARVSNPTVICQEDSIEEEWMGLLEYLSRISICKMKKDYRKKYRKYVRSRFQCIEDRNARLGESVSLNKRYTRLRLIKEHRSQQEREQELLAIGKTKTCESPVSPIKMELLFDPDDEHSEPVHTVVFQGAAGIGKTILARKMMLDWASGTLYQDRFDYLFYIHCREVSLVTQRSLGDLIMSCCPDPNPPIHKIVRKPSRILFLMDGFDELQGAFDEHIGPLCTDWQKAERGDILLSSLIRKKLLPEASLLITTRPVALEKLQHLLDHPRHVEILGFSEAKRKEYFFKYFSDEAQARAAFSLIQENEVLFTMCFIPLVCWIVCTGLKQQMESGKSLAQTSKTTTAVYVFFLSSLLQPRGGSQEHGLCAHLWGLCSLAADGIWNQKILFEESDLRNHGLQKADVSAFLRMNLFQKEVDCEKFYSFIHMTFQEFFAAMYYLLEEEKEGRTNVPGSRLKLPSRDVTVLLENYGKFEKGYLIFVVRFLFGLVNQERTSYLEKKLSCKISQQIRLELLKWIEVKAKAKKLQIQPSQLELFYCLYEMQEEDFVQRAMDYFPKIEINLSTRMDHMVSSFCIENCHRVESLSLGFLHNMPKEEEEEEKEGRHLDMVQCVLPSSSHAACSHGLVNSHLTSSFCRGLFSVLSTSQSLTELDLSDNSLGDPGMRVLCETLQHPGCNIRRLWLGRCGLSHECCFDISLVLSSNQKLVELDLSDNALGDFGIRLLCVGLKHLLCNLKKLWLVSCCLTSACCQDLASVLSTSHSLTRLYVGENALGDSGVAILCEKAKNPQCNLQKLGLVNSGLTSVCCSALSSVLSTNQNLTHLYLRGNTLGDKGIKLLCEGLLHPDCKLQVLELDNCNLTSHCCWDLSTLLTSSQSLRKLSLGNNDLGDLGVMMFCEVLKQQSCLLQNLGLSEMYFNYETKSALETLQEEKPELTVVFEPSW
By IC50 is commonly meant the concentration that gives 50% inhibition. As for `C[C@@H]1C[C@@H]2CC[C@H]([C@@H](NC(=O)C3(c4ccc(C(F)(F)F)cc4)CC3)C1)N2c1nnn[nH]1` [104F*, N-((1R,2S,4S,6S)-4-methyl-9-(1H-tetrazol-5-yl)-9-azabicyclo[4.2.1]nonan-2-yl)-1-(4-(trifluoromethyl)phenyl)cyclopropane-1-carboxamide], the half-maximal inhibitory concentration (IC50) was 10 to 50 µM. The same measure, in the same setting: the result for `O=C(N[C@H]1CCC[C@H]2CC[C@@H]1N2c1nnn[nH]1)C1(c2ccc(Cl)cc2)CC1` (single isomer, unassigned) [9D*, N-(9-(1H-tetrazol-5-yl)-9-azabicyclo[4.2.1]nonan-2-yl)-1-(4-chlorophenyl)cyclopropane-1-carboxamide] reads 10 to 50 µM.

The assay is the same for the next values; noted with them: displacement of 3H-MCC950; read-out: SPA IC50.
Take `C[C@@H]1CC[C@@H](NC(=O)C2(c3ccc(Cl)cc3)CC2)CN1c1nnn[nH]1` [Compound 41C, 1-(4-chlorophenyl)-N-[(3R,6R)-6-methyl-1-(1H-tetrazol-5-yl)-3-piperidyl]cyclopropanecarboxamide]: the 50% inhibitory concentration (IC50) is greater than 100 µM. On the same count and under the same terms, as for `C[C@@H]1CCN(c2nnn[nH]2)C[C@@H](NC(=O)C2(c3cnc(Cl)cc3O)CC2)C1` (single isomer, unassigned) [99B*], the figure is 1 to 10 µM. Still for that read-out and setting: the result for `C[C@@H]1C[C@H](NC(=O)C2(c3ccc(OC(F)F)cc3F)CC2)[C@H]2CC[C@@H]1N2c1nnn[nH]1` (stereo in doubt) [101B*, 1-(4-(difluoromethoxy)-2-fluorophenyl)-N-(4-methyl-8-(1H-tetrazol-5-yl)-8-azabicyclo[3.2.1]octan-2-yl)cyclopropane-1-carboxamide] reads greater than 100 µM. For the molecule `C[C@@H]1CC[C@H](NC(=O)C2(c3ccc(Cl)cc3)CC2)CN(c2nnn[nH]2)C1` (single isomer, unassigned) [36D*, 1-(4-chlorophenyl)-N-(6-methyl-1-(1H-tetrazol-5-yl)azepan-3-yl)cyclopropane-1-carboxamide], the IC50 is greater than 100 µM. For `C[C@H]1CCN(c2nnn[nH]2)C[C@@H](NC(=O)C2(c3ccc(Cl)c(F)c3F)CC2)C1` (single isomer, unassigned) [4D*, 1-(4-chloro-2,3-difluorophenyl)-N-(5-methyl-1-(1H-tetrazol-5-yl)azepan-3-yl)cyclopropane-1-carboxamide], the IC50 fell in the range of 1 to 10 µM. On the same count and under the same terms, as for `C[C@H]1C[C@H](NC(=O)C2(c3ccc(OC(F)F)cc3F)CC2)[C@@H]2CC[C@H]1N2c1nnn[nH]1` (stereo in doubt) [101D*, 1-(4-(difluoromethoxy)-2-fluorophenyl)-N-(4-methyl-8-(1H-tetrazol-5-yl)-8-azabicyclo[3.2.1]octan-2-yl)cyclopropane-1-carboxamide], the figure is 10 to 50 µM; as for `C[C@H]1CCN(c2nnn[nH]2)C[C@@H](NC(=O)C2(c3ccc(Cl)cc3)CC2)C1` (single isomer, unassigned) [12D*, 1-(4-chlorophenyl)-N-(5-methyl-1-(1H-tetrazol-5-yl)azepan-3-yl)cyclopropane-1-carboxamide], 10 to 50 µM; as for `C[C@H]1CCN(c2nnn[nH]2)C[C@H](NC(=O)C2(c3ccc(OC(F)F)cc3F)CC2)C1` (single isomer, unassigned) [3C*], greater than 100 µM. On the same count and under the same terms, the result for `C[C@@H]1CCN(c2nnn[nH]2)C[C@@H](NC(=O)C2(c3ccc(Cl)c(F)c3O)CC2)C1` (single isomer, unassigned) [18B*, 1-(4-chloro-3-fluoro-2-hydroxyphenyl)-N-(5-methyl-1-(1H-tetrazol-5-yl)azepan-3-yl)cyclopropane-1-carboxamide] reads 1 to 10 µM; that for `C[C@H]1CCN(c2nnn[nH]2)C[C@H](NC(=O)C2(c3cc(F)c(C(F)(F)F)cc3F)CC2)C1` (single isomer, unassigned) [7C*, 1-(2,5-difluoro-4-(trifluoromethyl)phenyl)-N-(5-methyl-1-(1H-tetrazol-5-yl)azepan-3-yl)cyclopropane-1-carboxamide], 50 to 100 µM. On the same count and under the same terms, as for `C[C@H]1C[C@@H](NC(=O)C2(c3ccc(C4CC4)c(F)c3O)CC2)[C@@H]2CC[C@H]1N2c1nnn[nH]1` [83C*, 1-(4-cyclopropy1-3-fluoro-2-hydroxyphenyl)-N-((1S,2R,4S,5R)-4-methy1-8-(1H-tetrazol-5-yl)-8-azabicyclo[3.2.1]octan-2-yl)cyclopropane-1-carboxamide], the figure is greater than 100 µM; as for `C[C@H]1CCN(c2nnn[nH]2)C[C@H](NC(=O)C2(c3ccc(C4CCC4)cc3)CC2)C1` (single isomer, unassigned) [8C*, 1-(4-cyclobutylphenyl)-N-(5-methyl-1-(1H-tetrazol-5-yl)azepan-3-yl)cyclopropane-1-carboxamide], 10 to 50 µM; as for `C[C@@H]1C[C@@H](NC(=O)C2(c3ccc(Cl)cc3)CC2)CN(c2nnn[nH]2)C1` [Compound 46C, 1-(4-chlorophenyl)-N-[(3R,5R)-5-methyl-1-(1H-tetrazol-5-yl)-3-piperidyl]cyclopropanecarboxamide], 10 to 50 µM. In the case of `Cc1ccc(C2(C(=O)N[C@H]3C[C@@H](C)[C@@H]4CC[C@H]3N4c3nnn[nH]3)CC2)cc1` [87B*, N-((1R,2S,4R,5S)-4-methy1-8-(1H-tetrazol-5-yl)-8-azabicyclo[3.2.1]octan-2-yl)-1-(p-tolyl)cyclopropane-1-carboxamide], the 50% inhibitory concentration (IC50) was 10 to 50 µM. `C[C@@H]1C[C@H](NC(=O)C2(c3ccc(SC(F)F)cc3)CC2)[C@H]2CC[C@@H]1N2c1nnn[nH]1` [85B*, 1-(4-((difluoromethyl)thio)phenyl)-N-((1R,2S,4R,5S)-4-methyl-8-(1H-tetrazol-5-yl)-8-azabicyclo[3.2.1]octan-2-yl)cyclopropane-1-carboxamide]: the IC50 is 10 to 50 µM. On to `C[C@H]1C[C@H](NC(=O)C2(c3ccc(C(F)(F)F)cc3F)CC2)[C@@H]2CC[C@H]1N2c1nnn[nH]1` [84D*, 1-(2-fluoro-4-(trifluoromethyl)phenyl)-N-((1S,2S,4S,5R)-4-methy1-8-(1H-tetrazol-5-yl)-8-azabicyclo[3.2.1]octan-2-yl)cyclopropane-1-carboxamide], for which the IC50 was greater than 100 µM.

For the molecule `C[C@@H]1CCN(c2nnn[nH]2)C[C@@H](NC(=O)C2(c3ccc(C(F)(F)F)cc3F)CC2)C1` (single isomer, unassigned) [68B*], the 50% inhibitory concentration (IC50) is 1 to 10 µM. As to `C[C@@H]1CC[C@H](NC(=O)C2(c3ccc(Cl)cc3O)CC2)CN(c2nnn[nH]2)C1` (single isomer, unassigned) [90D*], the IC50 fell in the range of 1 to 10 µM. In the case of `C[C@@H]1C[C@H](NC(=O)C2(c3ccc(Cl)cc3)CC2)[C@H]2CC[C@@H]1N2c1nnn[nH]1` [80B*, 1-(4-chlorophenyl)-N-((1R,2S,4R,5S)-4-methyl-8-(1H-tetrazol-5-yl)-8-azabicyclo[3.2.1]octan-2-yl)cyclopropane-1-carboxamide], the IC50 lay within 10 to 50 µM.

Turning to `C[C@H]1C[C@H](NC(=O)C2(c3ccc(C4CC4)cc3)CC2)[C@@H]2CC[C@H]1N2c1nnn[nH]1` [81D*], the IC50 lay in the range of 10 to 50 µM. As to `Cc1ccc(C2(C(=O)N[C@@H]3C[C@@H](C)CCN(c4nnn[nH]4)C3)CC2)c(O)c1F` (single isomer, unassigned) [22C*, 1-(3-fluoro-2-hydroxy-4-methylphenyl)-N-(5-methyl-1-(1H-tetrazol-5-yl)azepan-3-yl)cyclopropane-1-carboxamide], the IC50 lay within 10 to 50 µM. On the same count and under the same terms, as for `Cc1c(Cl)ccc(C2(C(=O)N[C@H]3C[C@H](C)CCN(c4nnn[nH]4)C3)CC2)c1O` (single isomer, unassigned) [21B*, 1-(4-chloro-2-hydroxy-3-methylphenyl)-N-(5-methyl-1-(1H-tetrazol-5-yl)azepan-3-yl)cyclopropane-1-carboxamide], the figure is 1 to 10 µM; as for `C[C@H]1CCN(c2nnn[nH]2)C[C@H](NC(=O)C2(c3ccc(C(F)(F)F)c(F)c3O)CC2)C1` (single isomer, unassigned) [31C*, 1-(3-fluoro-2-hydroxy-4-(trifluoromethyl)phenyl)-N-(5-methyl-1-(1H-tetrazol-5-yl)azepan-3-yl)cyclopropane-1-carboxamide], 10 to 50 µM; as for `C[C@H]1CCN(c2nnn[nH]2)C[C@H](NC(=O)C2(c3ccc(C(F)F)cc3O)CC2)C1` (single isomer, unassigned) [30C*, 1-(4-(difluoromethyl)-2-hydroxyphenyl)-N-(5-methyl-1-(1H-tetrazol-5-yl)azepan-3-yl)cyclopropane-1-carboxamide], greater than 100 µM.

As for `C[C@H]1CCN(c2nnn[nH]2)C[C@@H](NC(=O)C2(c3cc(F)c(Cl)cc3O)CC2)C1` (single isomer, unassigned) [29D*, 1-(4-chloro-5-fluoro-2-hydroxyphenyl)-N-(5-methyl-1-(1H-tetrazol-5-yl)azepan-3-yl)cyclopropane-1-carboxamide], the IC50 lay within 10 to 50 µM. For `C[C@H]1CCN(c2nnn[nH]2)C[C@H](NC(=O)C2(c3ccc(OC(F)F)cc3O)CC2)C1` (single isomer, unassigned) [70C*], the concentration for half-maximal inhibition (IC50) is 10 to 50 µM. Turning to `O=C(N[C@H]1C[C@H](C(F)(F)F)[C@H]2CC[C@@H]1N2c1nnn[nH]1)C1(c2ccc(Cl)cc2)CC1` (single isomer, unassigned) [103D*], the IC50 fell in the range of 10 to 50 µM. As to `C[C@H]1C[C@H](NC(=O)C2(c3ccc(C4CC4)c(F)c3O)CC2)[C@@H]2CC[C@H]1N2c1nnn[nH]1` [83D*, 1-(4-cyclopropyl-3-fluoro-2-hydroxyphenyl)-N-((1S,2S,4S,5R)-4-methy1-8-(1H-tetrazol-5-yl)-8-azabicyclo[3.2.1]octan-2-yl)cyclopropane-1-carboxamide], the IC50 is greater than 100 µM. As to `C[C@H]1C[C@@H](NC(=O)C2(c3ccc(OC(F)F)cc3F)CC2)[C@@H]2CC[C@H]1N2c1nnn[nH]1` (stereo in doubt) [101C*, 1-(4-(difluoromethoxy)-2-fluorophenyl)-N-(4-methyl-8-(1H-tetrazol-5-yl)-8-azabicyclo[3.2.1]octan-2-yl)cyclopropane-1-carboxamide], the 50% inhibitory concentration (IC50) is greater than 100 µM. Same read-out and setting: the result for `O=C(N[C@H]1C[C@@H](C(F)(F)F)[C@@H]2CC[C@H]1N2c1nnn[nH]1)C1(c2ccc(Cl)cc2)CC1` (single isomer, unassigned) [103B*] reads greater than 100 µM; that for `C[C@H]1C[C@H](NC(=O)C2(c3ccc(OC(F)F)cc3)CC2)[C@H]2CC[C@@H]1N2c1nnn[nH]1` (single isomer, unassigned) [35F*], 50 to 100 µM.

Source of the values: patent US20260007684A1, “AMIDE DERIVATIVES FOR INHIBITING NLRP3 AND USES THEREOF” (Ventus Therapeutics U.S., Inc., priority 2023, published 2026).
